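Compound exposure: 48 hours, 5 concentrations, 96-well plates. GI50 = concentration required for 50% inhibition of growth. TGI denotes the concentration required for complete inhibition of growth.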
Experiments:
Experiment in all cases: NCI anticancer screen, dose series, 48 h
786-0 renal = test system: 786-0 renal
MCF7 breast = test system: MCF7 breast
MDA-MB-231 breast = test system: MDA-MB-231 breast
RPMI-8226 leukemia = test system: RPMI-8226 leukemia
SF-268 CNS = test system: SF-268 CNS
SF-295 CNS = test system: SF-295 CNS
SF-539 CNS = test system: SF-539 CNS
SK-MEL-5 melanoma = test system: SK-MEL-5 melanoma
U251 CNS = test system: U251 CNS
UACC-257 melanoma = test system: UACC-257 melanoma

Structure (SMILES)	GI50 (786-0 renal)	TGI (786-0 renal)	GI50 (MCF7 breast)	TGI (MCF7 breast)	GI50 (MDA-MB-231 breast)	TGI (MDA-MB-231 breast)	GI50 (RPMI-8226 leukemia)	TGI (RPMI-8226 leukemia)	GI50 (SF-268 CNS)	TGI (SF-268 CNS)	GI50 (SF-295 CNS)	TGI (SF-295 CNS)	GI50 (SF-539 CNS)	TGI (SF-539 CNS)	GI50 (SK-MEL-5 melanoma)	TGI (SK-MEL-5 melanoma)	GI50 (U251 CNS)	TGI (U251 CNS)	GI50 (UACC-257 melanoma)	TGI (UACC-257 melanoma)
CC[C@H](Nc1nc(N)nc(C)c1C#N)c1nc2cccc(CN(C)c3ncc(C(=O)NO)cn3)c2c(=O)n1-c1ccccc1	1.53 µM	6.47 µM	0.915 µM	> 24.5 µM	779 nM	3.08 µM	212 nM	> 40.8 µM	1.09 µM	4.19 µM	1280 nM	3.81 µM	0.591 µM	6.12 µM	391 nM	1.12 µM	663 nM	2.03 µM	0.36 µM	3.11 µM
CCN(CC)c1ccc(/C=C/c2cc(C)c3ccccc3n2)cc1	4.51 µM	16.2 µM	2.31 µM	75.8 µM	3540 nM	13.3 µM	3110 nM	11.3 µM	5.46 µM	74.4 µM	1800 nM	5.72 µM	3.2 µM	9.61 µM	3100 nM	11.8 µM	2360 nM	21.1 µM	5.18 µM	42.8 µM
CCOC(=O)C=C1CCN(C(=O)c2ccccc2)CC1		> 100 µM						> 100 µM		> 100 µM		> 100 µM		> 100 µM		> 100 µM		> 100 µM		> 100 µM
CC(C)(O)c1ccc(N2CCN(c3nnc(Cc4ccccc4)c4ccccc34)CC2)nc1	14.6 µM	45.7 µM	7.05 µM	21.7 µM	5950 nM	32.2 µM			13.8 µM	33.5 µM	4160 nM	16.7 µM	12.7 µM	29.2 µM	2840 nM	8.64 µM	13200 nM	37.3 µM	8.59 µM	21.7 µM
O=C1c2ccccc2C(=O)N1CC1(C(=O)O)NCCS1(=O)=O (configuration not stated)		> 100 µM		> 100 µM		> 100 µM		> 100 µM		> 100 µM		> 100 µM		> 100 µM		> 100 µM		> 100 µM		> 100 µM
CS(=O)(=O)CC1=Nc2nnc(CCCCCCCc3nnc4n3C(=O)C(CS(C)(=O)=O)=N4)n2C1=O		> 100 µM						> 100 µM		> 100 µM		> 100 µM		> 100 µM		> 100 µM		> 100 µM		> 100 µM
CC12CCC(=O)C(O1)C1C(=O)c3cc4ccccc4cc3C(=O)C12 (configuration not stated)	16.3 µM	30 µM	12.6 µM	33 µM	14900 nM	35.6 µM			16.1 µM	53 µM			21.8 µM	59.3 µM			19000 nM	43.7 µM	16.2 µM	32.5 µM
COc1ccc2c(c1)CCC1C2CCC2(C)C1CCC2(O)CNC(=O)CCCCC1CCSS1 (configuration not stated)	17.7 µM	64 µM	10.3 µM	40.8 µM	2800 nM	8.3 µM	2430 nM	9.48 µM	15.9 µM	> 100 µM	19400 nM	79.6 µM	18.3 µM	90.8 µM	7150 nM	> 100 µM	15200 nM	56.6 µM	31.9 µM	> 100 µM
O=C(NCCCCCCNC(=O)c1cccc2ccccc12)c1cccc2ccccc12		80.7 µM						> 100 µM		81.9 µM		3.4 µM		35.4 µM		> 100 µM		53.8 µM		> 100 µM
COc1cccc(OC(=O)c2ccccc2Nc2ccnc(C(F)(F)F)c2)c1	3.43 µM	12.2 µM	7.29 µM	> 100 µM	2120 nM	16.9 µM	1010 nM	3.86 µM	4.65 µM	26.7 µM	2510 nM	> 100 µM			2230 nM		2860 nM	11 µM	5.37 µM	32.4 µM
COc1cc2cc(Oc3ccc(NC(=O)Nc4ccc(Cl)c(C(F)(F)F)c4)cc3)c(C)nc2cc1OCCN1CCCCC1	1.64 µM	3.17 µM			1390 nM	2.75 µM					1810 nM	3.3 µM	1.58 µM	2.94 µM	1650 nM	3.04 µM			1.79 µM	3.46 µM
C=C1C(=O)OC2CC3(C)C=CC(=O)C(=C)C3CC12 (configuration not stated)		3.36 µM						3.22 µM		6.91 µM		26.8 µM		3.97 µM		3.48 µM		13.5 µM		3.1 µM
O=C(CCn1[nH]c(=O)c(Cl)c(Cl)c1=O)NOCCCc1ccccc1		> 100 µM						> 100 µM		> 100 µM		> 100 µM		> 100 µM		> 100 µM				> 100 µM
CC1=C(C(=O)OCc2ccccc2)C(c2ccc3c(c2)OCO3)n2c(nc3ccccc32)N1 (configuration not stated)	0.47 µM	> 100 µM	0.236 µM	> 100 µM	> 92600 nM	> 100 µM			0.513 µM	> 100 µM	321 nM	> 100 µM	0.34 µM	> 100 µM	472 nM	> 100 µM	464 nM	> 100 µM		> 100 µM
O=C(O)[C@@H]1C2CC([C@@H]1C(=O)O)[C@H](N1C(=O)CCC1=O)[C@@H]2Br (some centres not stated)		> 100 µM				> 100 µM		> 100 µM		> 100 µM		> 100 µM		> 100 µM		> 100 µM		> 100 µM		> 100 µM
Cc1ccc(C(=O)Nc2ccc(S(=O)(=O)O)c3cc(S(=O)(=O)O)cc(S(=O)(=O)O)c23)cc1NC(=O)c1cccc(N)c1		> 100 µM		> 100 µM		> 100 µM				> 100 µM		> 100 µM		> 100 µM		> 100 µM		> 100 µM		> 100 µM
COC(=O)[C@@H]1CSC(=S)N1C(=O)C[C@H]1CC=CC[C@H]1CC(=O)Sc1ccccc1		32.3 µM						61.7 µM		35.1 µM		45.3 µM		32.1 µM				32.4 µM		35.9 µM
